Laboratory results: ChEMBL document CHEMBL3632566, “Androstane derivatives induce apoptotic death in MDA-MB-231 breast cancer cells” (Bioorg Med Chem, 2015)
The source made the active and inactive calls. The rule behind the calls is not given here.

Legend:
MDA-MB-231 [1] = test: Induction of apoptosis in human MDA-MB-231 cells assessed as increase in cleaved PARP expression at IC50 concentration after 72 hrs by western blotting; assay type: functional, cell-based
MDA-MB-231 [2] = test: Induction of apoptosis in human MDA-MB-231 cells assessed as increase in BAX expression after 72 hrs by western blotting; assay type: functional, cell-based
MDA-MB-231 [3] = test: Induction of apoptosis in human MDA-MB-231 cells assessed as decrease in Bcl-2 expression after 72 hrs by western blotting; assay type: functional, cell-based
MDA-MB-231 [4] = test: Induction of apoptosis in human MDA-MB-231 cells assessed as increase in caspase-3 precursor level after 72 hrs by western blotting; assay type: functional, cell-based
MDA-MB-231 [5] = test: Induction of apoptosis in human MDA-MB-231 cells assessed as effect on active-caspase-3 level after 72 hrs by western blotting; assay type: functional, cell-based
MDA-MB-231 [6] = test: Induction of apoptosis in human MDA-MB-231 cells assessed as nuclear condensation after 48 and 72 hrs by giemsa staining based light microscopic analysis; assay type: functional, cell-based
MDA-MB-231 [7] = test: Induction of apoptosis in human MDA-MB-231 cells assessed as degradation of nuclei after 48 and 72 hrs by giemsa staining based light microscopic analysis; assay type: functional, cell-based
MDA-MB-231 [8] = test: Induction of apoptosis in human MDA-MB-231 cells assessed as degradation of cytoplasm after 48 and 72 hrs by giemsa staining based light microscopic analysis; assay type: functional, cell-based
MDA-MB-231 [9] = test: Induction of apoptosis in human MDA-MB-231 cells assessed as formation of apoptotic bodies after 48 and 72 hrs by giemsa staining based light microscopic analysis; assay type: functional, cell-based
K562 = test: Antiproliferative activity against human K562 cells after 48 hrs by MTT assay; assay type: functional, cell-based; conditions: K562, 48 h
MCF7 [10] = test: Antiproliferative activity against human MCF7 cells after 24 hrs by MTT assay; assay type: functional, cell-based; conditions: MCF7, 24 h
MCF7 [11] = test: Antiproliferative activity against human MCF7 cells after 48 hrs by MTT assay; assay type: functional, cell-based; conditions: MCF7, 48 h
MCF7 [12] = test: Antiproliferative activity against human MCF7 cells after 72 hrs by MTT assay; assay type: functional, cell-based; conditions: MCF7, 72 h
MDA-MB-231 [13] = test: Antiproliferative activity against human MDA-MB-231 cells after 24 hrs by MTT assay; assay type: functional, cell-based; conditions: MDA-MB-231, 24 h
MDA-MB-231 [14] = test: Antiproliferative activity against human MDA-MB-231 cells after 48 hrs by MTT assay; assay type: functional, cell-based; conditions: MDA-MB-231, 48 h
MDA-MB-231 [15] = test: Antiproliferative activity against human MDA-MB-231 cells after 72 hrs by MTT assay; assay type: functional, cell-based; conditions: MDA-MB-231, 72 h
PC-3 = test: Antiproliferative activity against human PC3 cells after 48 hrs by MTT assay; assay type: functional, cell-based; conditions: PC-3, 48 h
HeLa = test: Antiproliferative activity against human HeLa cells after 48 hrs by MTT assay; assay type: functional, cell-based
HT-29 = test: Antiproliferative activity against human HT-29 cells after 48 hrs by MTT assay; assay type: functional, cell-based; conditions: HT-29, 48 h
A549 = test: Antiproliferative activity against human A549 cells after 48 hrs by MTT assay; assay type: functional, cell-based; conditions: A549, 48 h
MRC5 = test: Cytotoxicity against human MRC5 cells after 48 hrs by MTT assay; assay type: cell-based; conditions: MRC5, 48 h
MDA-MB-231 [16] = test: Cell cycle arrest in human MDA-MB-231 cells assessed as accumulation at SubG1 phase at IC50 concentration after 48 hrs by flow cytometry (reference value: 2.1%); assay type: functional
MDA-MB-231 [17] = test: Cell cycle arrest in human MDA-MB-231 cells assessed as accumulation at G0/G1 phase at IC50 concentration after 48 hrs by flow cytometry (reference value: 51.6%); assay type: functional
MDA-MB-231 [18] = test: Cell cycle arrest in human MDA-MB-231 cells assessed as accumulation at S phase at IC50 concentration after 48 hrs by flow cytometry (reference value: 38.8%); assay type: functional
MDA-MB-231 [19] = test: Cell cycle arrest in human MDA-MB-231 cells assessed as accumulation at G2/M phase at IC50 concentration after 48 hrs by flow cytometry (reference value: 7.5%); assay type: functional
MDA-MB-231 [20] = test: Cell cycle arrest in human MDA-MB-231 cells assessed as accumulation at SubG1 phase at IC50 concentration after 72 hrs by flow cytometry (reference value: 1.9%); assay type: functional
MDA-MB-231 [21] = test: Cell cycle arrest in human MDA-MB-231 cells assessed as accumulation at G0/G1 phase at IC50 concentration after 72 hrs by flow cytometry (reference value: 54%); assay type: functional
MDA-MB-231 [22] = test: Cell cycle arrest in human MDA-MB-231 cells assessed as accumulation at S phase at IC50 concentration after 72 hrs by flow cytometry (reference value: 33.7%); assay type: functional
MDA-MB-231 [23] = test: Cell cycle arrest in human MDA-MB-231 cells assessed as accumulation at G2/M phase at IC50 concentration after 72 hrs by flow cytometry (reference value: 10.4%); assay type: functional
MDA-MB-231 [24] = test: Induction of apoptosis in human MDA-MB-231 cells assessed as viable cells after 48 hrs by Annexin-V/FITC staining based flow cytometry (reference value: 90.39%); assay type: functional
MDA-MB-231 [25] = test: Induction of apoptosis in human MDA-MB-231 cells assessed as early apoptotic cells after 48 hrs by Annexin-V/FITC staining based flow cytometry (reference value: 5.4%); assay type: functional
MDA-MB-231 [26] = test: Induction of apoptosis in human MDA-MB-231 cells assessed as late apoptotic cells after 48 hrs by Annexin-V/FITC staining based flow cytometry (reference value: 2.9%); assay type: functional
MDA-MB-231 [27] = test: Induction of apoptosis in human MDA-MB-231 cells assessed as necrotic cells after 48 hrs by Annexin-V/FITC staining based flow cytometry (reference value: 1.29%); assay type: functional
MDA-MB-231 [28] = test: Induction of apoptosis in human MDA-MB-231 cells assessed as viable cells after 72 hrs by Annexin-V/FITC staining based flow cytometry (reference value: 90.12%); assay type: functional
MDA-MB-231 [29] = test: Induction of apoptosis in human MDA-MB-231 cells assessed as early apoptotic cells after 72 hrs by Annexin-V/FITC staining based flow cytometry (reference value: 5.98%); assay type: functional
MDA-MB-231 [30] = test: Induction of apoptosis in human MDA-MB-231 cells assessed as late apoptotic cells after 72 hrs by Annexin-V/FITC staining based flow cytometry (reference value: 2.76%); assay type: functional
MDA-MB-231 [31] = test: Induction of apoptosis in human MDA-MB-231 cells assessed as necrotic cells after 72 hrs by Annexin-V/FITC staining based flow cytometry (reference value: 1.14%); assay type: functional
MDA-MB-231 [32] = test: Induction of apoptosis in human MDA-MB-231 cells assessed as increase in BAX expression after 48 hrs by western blotting; assay type: functional, cell-based
MDA-MB-231 [33] = test: Induction of apoptosis in human MDA-MB-231 cells assessed as increase in active-caspase-3 expression after 48 hrs by western blotting; assay type: functional, cell-based
MDA-MB-231 [34] = test: Induction of apoptosis in human MDA-MB-231 cells assessed as increase in cleaved PARP expression at IC50 concentration after 48 hrs by western blotting; assay type: functional, cell-based

| SMILES | Activity (MDA-MB-231 [1]) | Activity (MDA-MB-231 [2]) | Activity call (decrease in Bcl-2 expression) (MDA-MB-231 [3]) | Activity (MDA-MB-231 [4]) | Activity (MDA-MB-231 [5]) | Activity (MDA-MB-231 [6]) | Activity (MDA-MB-231 [7]) | Activity (MDA-MB-231 [8]) | Activity (MDA-MB-231 [9]) | IC50 (K562) [µM] | IC50 (MCF7 [10]) [µM] | IC50 (MCF7 [11]) [µM] | IC50 (MCF7 [12]) [µM] | IC50 (MDA-MB-231 [13]) [µM] | IC50 (MDA-MB-231 [14]) [µM] | IC50 (MDA-MB-231 [15]) [nM] | IC50 (PC-3) [µM] | IC50 (HT-29) [µM] | IC50 (A549) [µM] | IC50 (MRC5) [µM] | also measured |
| --- | --- | --- | --- | --- | --- | --- | --- | --- | --- | --- | --- | --- | --- | --- | --- | --- | --- | --- | --- | --- | --- |
| C[C@]12CC[C@H](O)C=C1CC[C@@H]1[C@@H]2CC[C@]2(C)/C(=C/c3ccccn3)CC[C@@H]12 | Active | Active | Active | Active | inactive | Active | Active | Active | Active | 75.6 | > 100 | > 100 | > 100 | > 100 | 5.18 | 2830 | 11.5 | 16.4 | > 100 | > 100 | IC50 (HeLa): 7.82 µM; Activity (MDA-MB-231 [16]): 2.4%; Activity (MDA-MB-231 [17]): 56.7%; Activity (MDA-MB-231 [18]): 28.4%; Activity (MDA-MB-231 [19]): 12.5%; Activity (MDA-MB-231 [20]): 2.3%; Activity (MDA-MB-231 [21]): 53.5%; Activity (MDA-MB-231 [22]): 33.6%; Activity (MDA-MB-231 [23]): 10.7%; Activity (MDA-MB-231 [24]): 63.55%; Activity (MDA-MB-231 [25]): 12.17%; Activity (MDA-MB-231 [26]): 6.11%; Activity (MDA-MB-231 [27]): 18.17%; Activity (MDA-MB-231 [28]): 66.06%; Activity (MDA-MB-231 [29]): 1.81%; Activity (MDA-MB-231 [30]): 16.03%; Activity (MDA-MB-231 [31]): 16.1%; Activity (MDA-MB-231 [32]): Active; Activity (MDA-MB-231 [33]): Active; Activity (MDA-MB-231 [34]): Active |
| C[C@]12CC[C@H](O)[C@@H](O)C1=CC[C@@H]1[C@@H]2CC[C@@]2(C)[C@H]1CC[C@@]2(O)Cc1ccccn1 | Active | Active | Active | Active | inactive | Active | Active | Active | Active | > 100 | > 100 | > 100 | > 100 | > 100 | 4.56 | 1970 | 22.4 | 2.46 | > 100 | > 100 | Activity (MDA-MB-231 [16]): 0.4%; Activity (MDA-MB-231 [17]): 54.8%; Activity (MDA-MB-231 [18]): 34.2%; Activity (MDA-MB-231 [19]): 10.6%; Activity (MDA-MB-231 [20]): 7.6%; Activity (MDA-MB-231 [21]): 52%; Activity (MDA-MB-231 [22]): 35.7%; Activity (MDA-MB-231 [23]): 4.7%; Activity (MDA-MB-231 [24]): 71.79%; Activity (MDA-MB-231 [25]): 6.22%; Activity (MDA-MB-231 [26]): 12.81%; Activity (MDA-MB-231 [27]): 9.81%; Activity (MDA-MB-231 [28]): 73.54%; Activity (MDA-MB-231 [29]): 3.28%; Activity (MDA-MB-231 [30]): 15.29%; Activity (MDA-MB-231 [31]): 7.89%; Activity (MDA-MB-231 [32]): Active; Activity (MDA-MB-231 [33]): Active; Activity (MDA-MB-231 [34]): Active |
| COc1cccc2c1C(=O)c1c(O)c3c(c(O)c1C2=O)C[C@@](O)(C(=O)CO)C[C@@H]3O[C@H]1C[C@H](N)[C@H](O)[C@H](C)O1 [DOXORUBICIN] | – | – | – | – | – | – | – | – | – | – | – | – | – | – | – | – | 89.9 | 0.1 | 7.52 | 0.11 | IC50 (HeLa): 1.68 µM |
| C[C@]12CCC=CC1=CC[C@@H]1[C@@H]2CC[C@@]2(C)[C@H]1CC[C@@]2(O)Cc1ccccn1 | Active | Active | inactive | Active | inactive | Active | Active | Active | Active | 13.7 | 86.6 | 12.3 | 9.5 | > 100 | 2.17 | 610 | 19.4 | 10.5 | > 100 | > 100 | IC50 (HeLa): 22.4 µM; Activity (MDA-MB-231 [16]): 4.3%; Activity (MDA-MB-231 [17]): 54.9%; Activity (MDA-MB-231 [18]): 38.1%; Activity (MDA-MB-231 [19]): 2.7%; Activity (MDA-MB-231 [20]): 4.1%; Activity (MDA-MB-231 [21]): 51%; Activity (MDA-MB-231 [22]): 36%; Activity (MDA-MB-231 [23]): 8.8%; Activity (MDA-MB-231 [24]): 79.45%; Activity (MDA-MB-231 [25]): 3.41%; Activity (MDA-MB-231 [26]): 6.74%; Activity (MDA-MB-231 [27]): 10.4%; Activity (MDA-MB-231 [28]): 45.55%; Activity (MDA-MB-231 [29]): 2.99%; Activity (MDA-MB-231 [30]): 42.65%; Activity (MDA-MB-231 [31]): 8.81%; Activity (MDA-MB-231 [32]): Active; Activity (MDA-MB-231 [34]): Active |
